# Measurements published in patent US7402548B2, “Benzoxazole compounds, process for producing the same and herbicides” (Kyoyu Agri Co., Ltd., priority 2000, dated 2008).
# Tests used:
# Large crabgrass [1] = assay: Foliar spread test for upland field; assay type: in vivo, Digitaria adscendens; design: key: 0 = normal development, 5 = all killed (6 ranks vs. untreated); details: foliar spray, 500 ppm, 3 weeks, glass house 25° C.
# How it was run: (§1)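 Plants grown about 2 weeks at 25 °C in volcanic ash soil were sprayed with wettable powder diluted to 500 ppm in water with 0.5% surfactant. After 3 weeks at 25 °C, damage was scored 0 (normal) to 5 (all killed) against untreated plants.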
# green foxtail [2] = assay: Soil treatment test for upland field; assay type: in vivo, Setaria viridis; design: key: 0 = normal development, 5 = all killed; details: 500 g/ha, 3 weeks, glass house 25° C.
# How it was run: (§2)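 Surface spray of freshly sown alluvial soil, 500 g/ha compound, water containing 0.05% surfactant. Visual 0–5 damage rating versus untreated after 3 weeks, glasshouse at 25° C average.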
# [3] = tested on: sicklepod (Cassia obtusifolia); assay: Soil treatment test for upland field; assay type: in vivo; details: 500 g/ha, 3 weeks, glass house 25° C.
# Protocol: (§3) The herbicidal effects are evaluated according to the following 6 ranks as compared with non-treated district. (0: normal development, 1: Less damaged, 2: Slightly damaged, 3: Moderately damaged, 4: Severely damaged, 5: All killed). Incidentally, “-” in the column means not investigated.
# (§4) Wagner pots, each having an area of 1/5000 are, were packed with Ube soil (alluvial soil), and then each seed of corn, soybean, cotton, wheat, solgum, sugar beat, Large crabgrass, barnyard grass, green foxtail, blackgrass, annual bluegrass, common lambsquarters, livid amaranth, velvetleaf, morning glory, common Cocklebur (Xanthium strumarium) and sicklepod (Cassia obtusifolia) were planted and covered with soil.
# (§5) Each wettable powder of the desired compounds (I) shown in Tables 1 to 21, 24, 25, 28 and 29 prepared in accordance with Example 2 was diluted with water containing a surfactant (0.05%) and uniformly sprayed on the surface of each soil so that an effective concentration of the compound (I) in each herbicide became 500 g/ha.
# (§6) These plants were controlled in a glass house at an average temperature of 25° C. for 3 weeks, and then herbicidal effects thereof were investigated.
# (§7) The herbicidal effects were evaluated according to the evaluation method described in the above (1).
# Cyperus serotinus Rottb. = assay: Herbicidal test for paddy field; assay type: in vivo; details: 500 g/ha, dropwise addition to paddy water at 1.5 leaf stage of barnyard grass; glass house 25° C., 3 weeks; rank 0-5 vs non-treated district
# How it was run: (§8)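 Wettable-powder formulations in water with 0.05% surfactant were dripped onto flooded (3 cm) Ube alluvial-soil pots at 500 g/ha, applied at barnyard grass 1.5-leaf stage. Plants were kept in a glasshouse at 25° C. for 3 weeks. Damage was scored 0 (normal) to 5 (all killed) versus untreated plants.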
# morning glory [4] = assay: Soil treatment test for upland field; assay type: in vivo, Ipomoea spps.; design: key: 0 = normal development, 5 = all killed; details: 500 g/ha, 3 weeks, glass house 25° C.
# How it was run: as §2
# barnyardgrjass = assay: Foliar spread test for upland field; assay type: in vivo, Eschinochloa crusgalli; design: key: 0 = normal development, 5 = all killed (6 ranks vs. untreated); details: foliar spray, 500 ppm, 3 weeks, glass house 25° C.
# How it was run: as §1
# Cassia obtusifolia = assay: Foliar spread test for upland field; assay type: in vivo; design: key: 0 = normal development, 5 = all killed; details: foliar spray, 500 ppm, 3 weeks, glass house 25° C.
# Protocol: as §3
# (§9) Wagner pots, each having an area of 1/5000 are, were packed with volcanic ash soil and then each seed of corn, soybean, cotton, wheat, solgum, sugar beat, Large crabgrass, barnyardgrjass, green foxtail, blackgrass, annual bluegrass, common lambsquarters, livid amaranth, velvetleaf, morning glory, Xanthium pensylvanicum and Cassia obtusifolia was planted, covered with soil and grown in a glass house at an average temperature of 25° C. for about 2 weeks.
# (§10) Each wettable powder of the desired compounds (I) shown in Tables 1 to 21, 24, 25, 28 and 29 prepared in accordance with Example 2 was diluted to 500 ppm with water containing a surfactant (0.5%) and then uniformly sprayed on the above respective plants.
# (§11) After these plants were controlled in a glass house at an average temperature of 25° C. for 3 weeks, the herbicidal effects thereof were investigated.
# as §7
# Xanthium pensylvanicum = assay: Foliar spread test for upland field; assay type: in vivo; design: key: 0 = normal development, 5 = all killed; details: foliar spray, 500 ppm, 3 weeks, glass house 25° C.
# Protocol: as §3, §9, §10, §11, §7
# bulrush = assay: Herbicidal test for paddy field; assay type: in vivo, Scrips juncoides; details: 500 g/ha, dropwise addition to paddy water at 1.5 leaf stage of barnyard grass; glass house 25° C., 3 weeks; rank 0-5 vs non-treated district
# How it was run: as §8
# corn [5] = assay: Soil treatment test for upland field; assay type: in vivo; design: key: 0 = normal development, 5 = all killed; details: 500 g/ha, 3 weeks, glass house 25° C.
# How it was run: as §2
# sugar beat [6] = assay: Soil treatment test for upland field; assay type: in vivo; design: key: 0 = normal development, 5 = all killed; details: 500 g/ha, 3 weeks, glass house 25° C.
# How it was run: as §2
# solgum [7] = assay: Soil treatment test for upland field; assay type: in vivo; design: key: 0 = normal development, 5 = all killed; details: 500 g/ha, 3 weeks, glass house 25° C.
# How it was run: as §2
# green foxtail [8] = assay: Foliar spread test for upland field; assay type: in vivo, Setaria viridis; design: key: 0 = normal development, 5 = all killed (6 ranks vs. untreated); details: foliar spray, 500 ppm, 3 weeks, glass house 25° C.
# How it was run: as §1
# wheat [9] = assay: Foliar spread test for upland field; assay type: in vivo; design: key: 0 = normal development, 5 = all killed (6 ranks vs. untreated); details: foliar spray, 500 ppm, 3 weeks, glass house 25° C.
# How it was run: as §1
# corn [10] = assay: Foliar spread test for upland field; assay type: in vivo; design: key: 0 = normal development, 5 = all killed (6 ranks vs. untreated); details: foliar spray, 500 ppm, 3 weeks, glass house 25° C.
# How it was run: as §1
# soybean = assay: Foliar spread test for upland field; assay type: in vivo; design: key: 0 = normal development, 5 = all killed (6 ranks vs. untreated); details: foliar spray, 500 ppm, 3 weeks, glass house 25° C.
# How it was run: as §1
# sugar beat [11] = assay: Foliar spread test for upland field; assay type: in vivo; design: key: 0 = normal development, 5 = all killed (6 ranks vs. untreated); details: foliar spray, 500 ppm, 3 weeks, glass house 25° C.
# How it was run: as §1
# solgum [12] = assay: Foliar spread test for upland field; assay type: in vivo; design: key: 0 = normal development, 5 = all killed (6 ranks vs. untreated); details: foliar spray, 500 ppm, 3 weeks, glass house 25° C.
# How it was run: as §1
# cotton = assay: Foliar spread test for upland field; assay type: in vivo; design: key: 0 = normal development, 5 = all killed (6 ranks vs. untreated); details: foliar spray, 500 ppm, 3 weeks, glass house 25° C.
# How it was run: as §1
# blackgrass [13] = assay: Foliar spread test for upland field; assay type: in vivo, Alopecurus aegualis; design: key: 0 = normal development, 5 = all killed (6 ranks vs. untreated); details: foliar spray, 500 ppm, 3 weeks, glass house 25° C.
# How it was run: as §1
# blackgrass [14] = assay: Soil treatment test for upland field; assay type: in vivo, Alopecurus aegualis; design: key: 0 = normal development, 5 = all killed; details: 500 g/ha, 3 weeks, glass house 25° C.
# How it was run: as §2
# annual bluegrass [15] = assay: Foliar spread test for upland field; assay type: in vivo, Poa annua; design: key: 0 = normal development, 5 = all killed (6 ranks vs. untreated); details: foliar spray, 500 ppm, 3 weeks, glass house 25° C.
# How it was run: as §1
# Large crabgrass [16] = assay: Soil treatment test for upland field; assay type: in vivo, Digitaria adscendens; design: key: 0 = normal development, 5 = all killed; details: 500 g/ha, 3 weeks, glass house 25° C.
# How it was run: as §2
# barnyard grass [17] = assay: Soil treatment test for upland field; assay type: in vivo, Eschinochloa crusgalli; design: key: 0 = normal development, 5 = all killed; details: 500 g/ha, 3 weeks, glass house 25° C.
# How it was run: as §2
# common lambsquarters [18] = assay: Foliar spread test for upland field; assay type: in vivo, Chenopodium album; design: key: 0 = normal development, 5 = all killed (6 ranks vs. untreated); details: foliar spray, 500 ppm, 3 weeks, glass house 25° C.
# How it was run: as §1
# annual bluegrass [19] = assay: Soil treatment test for upland field; assay type: in vivo, Poa annua; design: key: 0 = normal development, 5 = all killed; details: 500 g/ha, 3 weeks, glass house 25° C.
# How it was run: as §2
# arrowhead = assay: Herbicidal test for paddy field; assay type: in vivo, Sagittaria pygmaea; details: 500 g/ha, dropwise addition to paddy water at 1.5 leaf stage of barnyard grass; glass house 25° C., 3 weeks; rank 0-5 vs non-treated district
# Protocol: Wagner pots, each having an area of 1/5000 are, were packed with Ube soil (alluvial soil) and planted with seeds or tubers of young rice plant, barnyard grass, bulrush, Cyperus serotinus Rottb., arrowhead and monochoria. Then, the pots were filled with water to a depth of 3 cm.
# as §5, with “Compounds” for “compounds”, “subjected to dropwise addition treatment by using pipet” for “uniformly sprayed on the surface of each soil”, “g/ha at 1.5 leaf stage of barnyard grass.” for “g/ha.”
# as §6, §3
# velvetleaf [20] = assay: Soil treatment test for upland field; assay type: in vivo, Abutilon theophrasti; design: key: 0 = normal development, 5 = all killed; details: 500 g/ha, 3 weeks, glass house 25° C.
# How it was run: as §2
# common lambsquarters [21] = assay: Soil treatment test for upland field; assay type: in vivo, Chenopodium album; design: key: 0 = normal development, 5 = all killed; details: 500 g/ha, 3 weeks, glass house 25° C.
# How it was run: as §2
# morning glory [22] = assay: Foliar spread test for upland field; assay type: in vivo, Ipomoea spps.; design: key: 0 = normal development, 5 = all killed (6 ranks vs. untreated); details: foliar spray, 500 ppm, 3 weeks, glass house 25° C.
# How it was run: as §1
# barnyard grass [23] = assay: Herbicidal test for paddy field; assay type: in vivo, Eschinochloa crusgalli; details: 500 g/ha, dropwise addition to paddy water at 1.5 leaf stage of barnyard grass; glass house 25° C., 3 weeks; rank 0-5 vs non-treated district
# How it was run: as §8
# livid amaranth [24] = assay: Foliar spread test for upland field; assay type: in vivo, Amaranthus lividus; design: key: 0 = normal development, 5 = all killed (6 ranks vs. untreated); details: foliar spray, 500 ppm, 3 weeks, glass house 25° C.
# How it was run: as §1
# velvetleaf [25] = assay: Foliar spread test for upland field; assay type: in vivo, Abutilon theophrasti; design: key: 0 = normal development, 5 = all killed (6 ranks vs. untreated); details: foliar spray, 500 ppm, 3 weeks, glass house 25° C.
# How it was run: as §1
# livid amaranth [26] = assay: Soil treatment test for upland field; assay type: in vivo, Amaranthus lividus; design: key: 0 = normal development, 5 = all killed; details: 500 g/ha, 3 weeks, glass house 25° C.
# How it was run: as §2
# [27] = tested on: common Cocklebur (Xanthium strumarium); assay: Soil treatment test for upland field; assay type: in vivo; details: 500 g/ha, 3 weeks, glass house 25° C.
# Protocol: as §3, §4, §5, §6, §7
# wheat [28] = assay: Soil treatment test for upland field; assay type: in vivo; design: key: 0 = normal development, 5 = all killed; details: 500 g/ha, 3 weeks, glass house 25° C.
# How it was run: as §2
Compound,Effects Large crabgrass (Large crabgrass [1]),Effects Green foxtail (green foxtail [2]),Effects Sicklepod [3],Effects Morning glory (morning glory [4]),Effects Barnyardgrass (barnyardgrjass),Effects Sicklepod (Cassia obtusifolia),Effects Common Cocklebur (Xanthium pensylvanicum),Effects Bulrush (bulrush),Effects Corn (corn [5]),Effects Sugar beat (sugar beat [6]),Effects Solgum (solgum [7]),Effects Green foxtail (green foxtail [8]),Effects Wheat (wheat [9]),Effects Corn (corn [10]),Effects Soybean (soybean),Effects Sugar beat (sugar beat [11]),Effects Solgum (solgum [12]),Effects Sotton (cotton),Effects Blackgrass (blackgrass [13]),Effects Blackgrass (blackgrass [14]),further results
COc1ccc2oc(-c3cccc(Oc4cccc(C(F)(F)F)c4)n3)nc2c1 [I-a-4],1,1,0,1,0,4,3,0,0,0,0,1,1,1,2,4,1,2,0,0,Effects Cyperus serotinus Rottb. (Cyperus serotinus Rottb.): 0; Effects Annual bluegrass (annual bluegrass [15]): 1; Effects Large crabgrass (Large crabgrass [16]): 0; Effects Barnyardgrass (barnyard grass [17]): 3; Effects Common lambsquarters (common lambsquarters [18]): 5; Effects Annual bluegrass (annual bluegrass [19]): 0; Effects Arrowhead (arrowhead): 0; Effects Velvetleaf (velvetleaf [20]): 1; Effects Common lambsquarters (common lambsquarters [21]): 0; Effects Morning glory (morning glory [22]): 5; Effects Barnyardgrass (barnyard grass [23]): 0; Effects Livid amaranth (livid amaranth [24]): 5; Effects Velvetleaf (velvetleaf [25]): 3
FC(F)(F)c1cccc(Oc2cccc(-c3nc4ccccc4o3)n2)c1 [I-a-1],4,5,3,4,3,5,4,2,0,5,2,5,2,2,5,4,2,4,2,4,Effects Livid amaranth (livid amaranth [26]): 5; Effects Common Cocklebur [27]: 5; Effects Cyperus serotinus Rottb. (Cyperus serotinus Rottb.): 2; Effects Wheat (wheat [28]): 1; Effects Annual bluegrass (annual bluegrass [15]): 4; Effects Large crabgrass (Large crabgrass [16]): 5; Effects Barnyardgrass (barnyard grass [17]): 4; Effects Common lambsquarters (common lambsquarters [18]): 5; Effects Annual bluegrass (annual bluegrass [19]): 5; Effects Arrowhead (arrowhead): 1; Effects Velvetleaf (velvetleaf [20]): 3; Effects Common lambsquarters (common lambsquarters [21]): 5; Effects Morning glory (morning glory [22]): 5; Effects Barnyardgrass (barnyard grass [23]): 4; Effects Livid amaranth (livid amaranth [24]): 5; Effects Velvetleaf (velvetleaf [25]): 4
Fc1ccc2oc(-c3cccc(Oc4cccc(C(F)(F)F)c4)n3)nc2c1 [I-a-2],4,5,3,5,3,4,4,3,2,5,1,5,2,2,3,4,2,4,3,5,Effects Livid amaranth (livid amaranth [26]): 5; Effects Common Cocklebur [27]: 3; Effects Wheat (wheat [28]): 1; Effects Annual bluegrass (annual bluegrass [15]): 4; Effects Large crabgrass (Large crabgrass [16]): 5; Effects Barnyardgrass (barnyard grass [17]): 4; Effects Common lambsquarters (common lambsquarters [18]): 5; Effects Annual bluegrass (annual bluegrass [19]): 5; Effects Arrowhead (arrowhead): 1; Effects Velvetleaf (velvetleaf [20]): 5; Effects Common lambsquarters (common lambsquarters [21]): 5; Effects Morning glory (morning glory [22]): 5; Effects Barnyardgrass (barnyard grass [23]): 4; Effects Livid amaranth (livid amaranth [24]): 5; Effects Velvetleaf (velvetleaf [25]): 4
